Here are results for 5 compounds from patent publication US20240166646A1, “1H-PYRROLO[2,3-B]PYRIDINE DERIVATIVES AS BCL-2 INHIBITORS FOR THE TREATMENT OF NEOPLASTIC AND AUTOIMMUNE DISEASES” (Newave Pharmaceutical Inc., priority 2020, published 2024).

The test system of data set [1] is Granta-519 xenograft. The settings on record: single agent or in combination with Bendamustine and other agents; cited from earlier work.
In data set [2] the test system is RS4; 11 xenografts. As to conditions: single dose of 100 mg/kg; cited from earlier work.
Data set [3] deals with DoHH2 xenograft. As to conditions: single agent or in combination with Bendamustine and other agents; cited from earlier work.
The test system of data set [4] is BCL-2-dependent acute lymphoblastic leukemia (ALL) cell line RS4; 11 with G101V mutation. Description: In vitro anti-proliferation assay (ATPlite) in RS4; 11 with G101V mutation. The settings on record: about 72 hours incubation, medium with 5% FBS or 10% normal human serum, ATPlite luminescence. In kind it is cell-based. In short, it runs like this:
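About 1×10^4 cells per well exposed to a compound dose range for about 72 h in medium with 5% FBS or 10% normal human serum. ATP content read by ATPlite luminescence after lysis. IC50 derived from dose-response.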
(In general: Cellular ATP, detected with luciferase, serves as a proxy for viable cell number.)

For data set [5], the target named is Mcl-1 (Homo sapiens (Human), UniProt Q07820). As to conditions: cited from earlier work.
Data set [6] has as its system CLL who have 17p deletion. As to conditions: Human Phase I and II data; cited from earlier work.
The subject of data set [7] is CLL. The settings on record: average; read-out: average EC50, apoptosis in CLL; cited from earlier work.
Data set [8] deals with RS4; 11 cells. As to conditions: cited from earlier work.
The conditions of data set [9]: in vivo; cited from earlier work.
For data set [10], the target named is Bcl-w (Homo sapiens (Human), UniProt Q92843). As to conditions: cited from earlier work.
Data set [11] concerns xenograft models of small-cell lung cancer and acute lymphoblastic leukemia. As to conditions: oral administration, alone; cited from earlier work.
The subject of data set [12] is circulating platelets. As to conditions: clinical trial, patients; cited from earlier work.
Data set [13] concerns H345 xenograft. As to conditions: 100 mg/kg/day, H345 xenograft model; cited from earlier work.
The subject of data set [14] is SCLC H146 cell line. The settings on record: read-out: IC50 against SCLC H146 cell line; cited from earlier work.
For data set [15] the following is noted: cited from earlier work.
Data set [16] relates to established tumors. The settings on record: mouse, in vivo; cited from earlier work.
Data set [17] addresses Bcl-2 (Homo sapiens (Human), UniProt P10415). Description: Bcl-2 competition binding (fluorescence polarization) assay. As to conditions: fluorescein labeled BH3 peptide 15 nM, Bcl-2 protein 30 nM, 3 hours of incubation at room temperature. The procedure, abridged: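 Fluorescence polarization competition of 15 nM labeled 23-mer BH3 peptide with 30 nM purified Bcl-2, in 20 mM Hepes pH 7.0, 50 mM KCl, 5 mM MgCl2, 20 mM Na2MoO4, 0.1 mg/ml bovine gamma globulin, 0.01% NP40. Compounds 20 μM to 2 nM final; mP read after 3 h at room temperature, background-subtracted. IC50 from sigmoidal dose-response fit.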

SMILES strings stand for the structures. pEC50, pIC50, pKi: −log10 of the molar value. Structures can show the parent of a compound that is named as a salt.

Sequence of Bcl-2 (P10415 whole entry): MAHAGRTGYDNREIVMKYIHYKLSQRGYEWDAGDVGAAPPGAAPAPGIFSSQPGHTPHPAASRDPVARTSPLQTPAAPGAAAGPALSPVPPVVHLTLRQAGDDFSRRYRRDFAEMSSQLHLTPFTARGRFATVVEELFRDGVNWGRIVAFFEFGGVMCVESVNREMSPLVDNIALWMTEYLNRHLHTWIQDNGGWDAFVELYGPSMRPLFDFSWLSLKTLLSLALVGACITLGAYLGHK
Sequence of Mcl-1 (Q07820 whole entry): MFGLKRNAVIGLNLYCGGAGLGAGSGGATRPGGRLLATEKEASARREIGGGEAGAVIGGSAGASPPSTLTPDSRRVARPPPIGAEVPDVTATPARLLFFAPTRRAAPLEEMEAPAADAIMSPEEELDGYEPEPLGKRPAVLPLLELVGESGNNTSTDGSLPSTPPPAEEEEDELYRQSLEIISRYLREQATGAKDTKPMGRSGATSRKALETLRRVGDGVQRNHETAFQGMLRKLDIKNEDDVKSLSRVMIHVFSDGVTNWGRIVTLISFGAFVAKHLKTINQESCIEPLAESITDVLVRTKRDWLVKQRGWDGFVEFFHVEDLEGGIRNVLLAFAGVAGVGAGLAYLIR
Sequence of Bcl-w (Q92843 whole entry): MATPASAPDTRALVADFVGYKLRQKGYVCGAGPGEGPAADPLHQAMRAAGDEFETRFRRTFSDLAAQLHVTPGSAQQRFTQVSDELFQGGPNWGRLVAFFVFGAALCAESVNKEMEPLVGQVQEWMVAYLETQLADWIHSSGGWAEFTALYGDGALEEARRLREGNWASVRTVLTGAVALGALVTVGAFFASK

As for `CC1(C)CCC(CN2CCN(c3ccc(C(=O)NS(=O)(=O)c4ccc(NCC5CCOCC5)c([N+](=O)[O-])c4)c(Oc4cnc5[nH]ccc5c4)c3)CC2)=C(c2ccc(Cl)cc2)C1` [ABT-199], the “xenograft growth Granta-519” value in data set [1] is “inhibits xenograft growth”. In data set [2], the “maximal tumor growth inhibition” value is on record as 95% and the tumor growth delay was 152%. In addition, the “xenograft growth DoHH2” value in [3] is recorded as “inhibits xenograft growth”. In data set [4] (RS4-11), the pIC50 is 5.92. The “activity to Mcl-1” value in data set [5] is on record as “no activity”. Also, the clinical efficacy entry in [6] is reported as “highly efficacious”. Besides, the negative-log EC50 (pEC50) in data set [7] is 8.52. The pEC50 in data set [8] is 8.10. Also, the “apoptosis in RS4; 11 cells” value in data set [8] (cytochrome c release, caspase activation, accumulation of sub-G0/G1 DNA) was “induces a rapid apoptosis”.
Turning to `CC1(C)CCC(c2ccc(Cl)cc2)=C(CN2CCN(c3ccc(C(=O)NS(=O)(=O)c4ccc(N[C@H](CCN5CCOCC5)CSc5ccccc5)c(S(=O)(=O)C(F)(F)F)c4)cc3)CC2)C1` [ABT-263], the oral bioavailability entry in [9] was “orally bioavailable”. Further, the negative-log Ki (pKi) in data set [10] is 9.00. In addition, the tumor regression result in data set [11] is listed as “complete tumor regressions”. The “effect on number of circulating platelets” value in data set [12] is given as “rapid, concentration-dependent decrease in the number of circulating platelets”. In data set [13], the TGI is 80% and the “treated tumors indicating at least a 50% reduction in tumor volume” value is given as 20%. For the same compound, the pIC50 in [14] was 6.96.
In the case of `CN(C)CC[C@H](CSc1ccccc1)Nc1ccc(S(=O)(=O)NC(=O)c2ccc(N3CCN(Cc4ccccc4-c4ccc(Cl)cc4)CC3)cc2)cc1[N+](=O)[O-]` [ABT-737], the aqueous solubility entry in [15] is listed as “low aqueous solubility”. For the same compound, in [9], the oral bioavailability result was “not orally bioavailable”. In [16], the “efficacy in animal models” value was “improves survival, causes regression of established tumors, and produces cures in a high percentage of the mice”.
As for `CC(C)Oc1ccccc1[C@@H]1CCCN1C1CC2(CCN(c3ccc(C(=O)NS(=O)(=O)c4ccc(NCC5CCOCC5)c([N+](=O)[O-])c4)c(N4c5cc6cc[nH]c6nc5O[C@H]5COCC[C@@H]54)c3)CC2)C1` [Example 67, 2-[(3R,8S)-2,5-dioxa-9,15,17-triazatetracyclo[8.7.0.0^{3,8}.0^{12,16}]heptadeca-1(10),11,13,16-tetraen-9-yl]-4-{2-[(2S)-2-(2-isopropoxyphenyl)pyrrolidin-1-yl]-7-azaspiro[3.5]nonan-7-yl}-N-{3-nitro-4-[(oxan-4-ylmethyl)amino]benzenesulfonyl}benzamide hydrochloride], the pIC50 is 9.64 in data set [17] (hydrochloride) and 7.30 in data set [4] (hydrochloride).
In the case of `Cc1ccccc1[C@@H]1CCCN1C1CC2(CCN(c3ccc(C(=O)NS(=O)(=O)c4ccc(NCC5CCOCC5)c([N+](=O)[O-])c4)c(N4C[C@H]5CCOC[C@@H]5Oc5nc6[nH]ccc6cc54)c3)CC2)C1` [Example 68, 2-[(3R,8R)-2,5-dioxa-10,16,18-triazatetracyclo[9.7.0.0^{3,8}.0^{13,17}]octadeca-1(11),12,14,17-tetraen-10-yl]-4-{2-[(2S)-2-(2-methylphenyl)pyrrolidin-1-yl]-7-azaspiro[3.5]nonan-7-yl}-N-{3-nitro-4-[(oxan-4-ylmethyl)amino]benzenesulfonyl}benzamide], the negative-log IC50 (pIC50) in [17] is 9.52; in data set [4], 7.39.

As a reminder, the pIC50 is the negative decadic logarithm of the IC50, by convention in mol/L. By pEC50 is commonly meant −log10 of the EC50, conventionally taken in molar units. Broadly, the pKi is the Ki on a negative log10 scale, so that one unit is a factor of ten. In general, TGI refers to the reduction of tumour growth relative to the control group.
